The conditions of series [1]: low solubility, low permeability; cited from earlier work.
A short description of series [2]: Differential scanning calorimetry (DSC), glass transition temperature. The note with it: neat substance (not a solid solution). The class given is physicochemical. Here is the method: DSC curves were measured with a Pyris 1 (Perkin Elmer) device. The sample charge was 3-4 mg, heating rate 10 °C/min. Nitrogen was used as a carrier gas (20 ml/min).
The products were characterized by XRPD and DSC analysis.
In all cases the Tg values were higher for solid solution of 1:2 ratio than those for 1:1 ratio. Therefore, the 1:2 API to polymer ratio was able to form more physically stable solid solutions. It is known that the physical stability of the solid solution is increased with a higher glass transition temperature (Hancock and Zografi, 1997).
On the technique in general: Differential scanning calorimetry records heat flow against a reference as temperature is scanned.

Regarding `CCCSc1nc(N[C@@H]2C[C@H]2c2ccc(F)c(F)c2)c2nnn([C@@H]3C[C@H](OCCO)[C@@H](O)[C@H]3O)c2n1` [ticagrelor, (1S,2S,3R,5S)-3-[7-[(1R,2S)-2-(3,4-Difluorophenyl)cyclopropylamino]-5-(propylthio)-3H-[1,2,3]triazolo[4,5-d]pyrimidin-3-yl]-5-(2-hydroxyethoxy)cyclopentane-1,2-diol], the “Biopharmaceutical Classification System (BCS) class” value in series [1] is “class IV”.

On to `CCCSc1nc(N[C@@H]2C[C@H]2c2ccc(F)c(F)c2)c2nnn([C@@H]3C[C@H](OCCO)[C@@H](O)[C@H]3O)c2n1` [Amorphous ticagrelor, (1S,2S,3R,5S)-3-[7-[(1R,2S)-2-(3,4-Difluorophenyl)cyclopropylamino]-5-(propylthio)-3H-[1,2,3]triazolo[4,5-d]pyrimidin-3-yl]-5-(2-hydroxyethoxy)cyclopentane-1,2-diol], for which, in series [2], the “glass transition temperature (Tg)” value was “about 46 °C”.

These data come from patent EP2813216A1, “Stabilized amorphous ticagrelor” (Zentiva, a.s., priority 2013, dated 2014).
